The values below are quoted from earlier work in patent publication US11753385B2, “Method for producing kakeromycin and derivatives thereof” (OP BIO FACTORY CO., LTD., priority 2015, dated 2023).

The subject of series [1] is HepG2 liver cancer cell.
The subject of series [2] is PANC-1 pancreas cancer cell.
In series [3] the test system is pathogens of candidiasis. The settings on record: background statement, in words only.

Take `CC=C(Cc1ccccc1)C12CC(O)CCN1O2` (stereo not drawn) [kakeromycin]: the cytotoxicity result in series [1] and in series [2] was “shows cytotoxicity” throughout. Also, the “antibacterial activity against pathogens of candidiasis” value in series [3] is recorded as “strong antibacterial activity”.
